Source: patent US12655116B2, “Substituted isophthalic acid diamides” (Bayer Aktiengesellschaft, priority 2020, dated 2026)

Key:
ALOMY [1] = assay: Pre-emergence herbicidal action against ALOMY; assay type: in vivo, Alopecurus myosuroides
Procedure, shortened: (§1)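 Herbicidal effect was assessed 3 weeks after treatment by visual comparison with untreated controls, 100% denoting dead plants. Aqueous WP or EC preparations had been applied at 600 to 800 l/ha with 0.2% wetting agent to the soil covering freshly sown seeds.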

ALOMY [2] = assay: Post-emergence herbicidal action against ALOMY; assay type: in vivo, Alopecurus myosuroides; conditions: dosage 20 g/ha, visual assessment about 3 weeks after treatment vs untreated controls
Procedure, shortened: (§2)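 Post-emergence greenhouse test; one-leaf stage, 2–3 wk post-sowing, sandy loam. Foliar spray of WP/EC in water, 600–800 l/ha, +0.2% wetting agent. Visual % action at ~3 wk vs untreated (100% = plants dead).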

VERPE [3] = assay: Post-emergence herbicidal action against VERPE; assay type: in vivo, Veronica persica; conditions: 20 g/ha
Procedure, shortened: as §2

VIOTR [4] = assay: Post-emergence herbicidal action against VIOTR; assay type: in vivo, Viola tricolor
Procedure, shortened: as §2

VIOTR [5] = assay: Pre-emergence herbicidal action against VIOTR; assay type: in vivo, Viola tricolor
Procedure, shortened: as §1

ABUTH [6] = assay: Pre-emergence herbicidal action against ABUTH; assay type: in vivo, Abutilon theophrasti
Procedure, shortened: as §1

ECHCG [7] = assay: Post-emergence herbicidal action against ECHCG; assay type: in vivo, Echinochloa crus-galli
Procedure, shortened: as §2

ABUTH [8] = assay: Post-emergence herbicidal action against ABUTH; assay type: in vivo, Abutilon theophrasti; conditions: visual assessment about 3 weeks after treatment vs untreated controls
Procedure, shortened: as §2

SETVI [9] = assay: Pre-emergence herbicidal action against SETVI; assay type: in vivo, Setaria viridis
Procedure, shortened: as §1

ECHCG [10] = assay: Pre-emergence herbicidal action against ECHCG; assay type: in vivo, Echinochloa crus-galli; conditions: 80 g/ha
Procedure, shortened: as §1

SETVI [11] = assay: Post-emergence herbicidal action against SETVI; assay type: in vivo, Setaria viridis
Procedure, shortened: as §2

AMARE [12] = assay: Post-emergence herbicidal action against AMARE; assay type: in vivo, Amaranthus retroflexus; conditions: 20 g/ha, visual assessment about 3 weeks after treatment, 100% = plants have died, 0% = like control plants
Procedure, shortened: as §2

MATIN [13] = assay: Post-emergence herbicidal action against MATIN; assay type: in vivo, Matricaria inodora; conditions: dosage 20 g/ha
Procedure, shortened: as §2

POLCO = assay: Pre-emergence herbicidal action against POLCO; assay type: in vivo, Polygonum convolvulus
Procedure, shortened: as §1

PHBPU [14] = assay: Pre-emergence herbicidal action against PHBPU; assay type: in vivo, Pharbitis purpurea
Procedure, shortened: as §1

MATIN [15] = assay: Pre-emergence herbicidal action against MATIN; assay type: in vivo, Matricaria inodora
Procedure, shortened: as §1

AMARE [16] = assay: Pre-emergence herbicidal action against AMARE; assay type: in vivo, Amaranthus retroflexus
Procedure, shortened: as §1

PHBPU [17] = assay: Post-emergence herbicidal action against PHBPU; assay type: in vivo, Pharbitis purpurea; conditions: dosage 20 g/ha
Procedure, shortened: as §2

AVEFA = assay: Pre-emergence herbicidal action against AVEFA; assay type: in vivo, Avena fatua; conditions: 80 g/ha, pre-emergence
Procedure, shortened: as §1

VERPE [18] = assay: Pre-emergence herbicidal action against VERPE; assay type: in vivo, Veronica persica; conditions: Veronica persica, 504 h, dosage 80 g/ha
Procedure, shortened: as §1

DIGSA [19] = assay: Pre-emergence herbicidal action against DIGSA; assay type: in vivo, Digitaria sanguinalis; conditions: Digitaria sanguinalis, 504 h, dosage 80 g/ha
Procedure, shortened: as §1

DIGSA [20] = assay: Post-emergence herbicidal action against DIGSA; assay type: in vivo, Digitaria sanguinalis; conditions: Digitaria sanguinalis, 504 h
Procedure, shortened: as §2

[21] = 80 g/ha, scored visually after 3 weeks vs untreated controls (100% = plants have died, 0% = like control plants)
[22] = Setaria viridis, 504 h, dosage 20 g/ha

CCc1c(C(=O)Nc2nnnn2C)ccc(C(F)(F)F)c1C(=O)NCC(F)F [Example 1-276]
Pre-emergence action against ALOMY (ALOMY [1]; 20 g/ha, scored visually after 3 weeks, 100% = plants have died, 0% = like control plants): 90%
Pre-emergence action against ALOMY (herbicidal activity) (ALOMY [1]; 80 g/ha, pre-emergence, scored visually after 3 weeks vs untreated controls (100% = plants have died, 0% = like control plants)): 100%
Post-emergence action against ALOMY in % (ALOMY [2]): 80%
Post-emergence action against VERPE in % (VERPE [3]): 80%
Post-emergence action against VIOTR in % (VIOTR [4]; 20 g/ha): 80%
Pre-emergence action against VIOTR in % (VIOTR [5]; dosage 20 g/ha): 80%
Pre-emergence action against VIOTR in % (VIOTR [5]; dosage 80 g/ha): 100%
Pre-emergence action against ABUTH (herbicidal activity) (ABUTH [6]; [21]): 100%
Pre-emergence action against ABUTH (herbicidal activity in percent) (ABUTH [6]; dosage 20 g/ha, scored visually after 3 weeks vs untreated controls, 100% = plants have died, 0% = like control plants): 100%
Post-emergence action against ECHCG in % (ECHCG [7]; dosage 20 g/ha): 80%
Post-emergence action against ABUTH in % (ABUTH [8]; dosage 5 g/ha): 80%
Post-emergence action against ABUTH in % (ABUTH [8]; dosage 20 g/ha): 80%
Pre-emergence action against SETVI in % (SETVI [9]; dosage 80 g/ha): 100%
Pre-emergence action against ECHCG in % (ECHCG [10]): 100%
Post-emergence action against SETVI in % (SETVI [11]; dosage 5 g/ha): 80%
Post-emergence action against SETVI in % (SETVI [11]; dosage 20 g/ha): 80%
Post-emergence action at 20 g/ha against AMARE in % (AMARE [12]): 100%
Post-emergence action against MATIN in % (MATIN [13]): 80%
Pre-emergence action against POLCO in % (POLCO; dosage 20 g/ha): 80%
Pre-emergence action against POLCO in % (POLCO; dosage 80 g/ha): 90%
Pre-emergence action against PHBPU in % (PHBPU [14]; dosage 80 g/ha): 90%
Pre-emergence action against MATIN in % (MATIN [15]; dosage 20 g/ha): 90%
Pre-emergence action against MATIN in % (MATIN [15]; dosage 80 g/ha): 100%
Pre-emergence action against AMARE in % (AMARE [16]; 20 g/ha, scored visually after 3 weeks vs untreated controls, 100% = plants have died, 0% = like control plants): 90%
Pre-emergence action against AMARE in % (AMARE [16]; [21]): 100%
Post-emergence action against PHBPU in % (PHBPU [17]): 90%
Pre-emergence action against AVEFA in % (AVEFA): 90%

CNC(=O)c1c(C(F)(F)F)ccc(C(=O)Nc2nnnn2C)c1OC [Example 1-56]
pest or weed control at 80 g/ha (ALOMY [1]; Alopecurus myosuroides, 504 h, 80 g/ha, pre-emergence, scored visually after 3 weeks vs untreated controls (100% = plants have died, 0% = like control plants)): 90%
pest or weed control at 80 g/ha (VERPE [18]): 90%
pest or weed control at 20 g/ha (VERPE [3]; Veronica persica, 504 h): 90%
pest or weed control at 5 g/ha (VIOTR [4]; Viola tricolor, 504 h, 5 g/ha): 100%
pest or weed control at 20 g/ha (VIOTR [4]; Viola tricolor, 504 h, 20 g/ha): 100%
pest or weed control at 20 g/ha (VIOTR [5]; Viola tricolor, 504 h, dosage 20 g/ha): 100%
pest or weed control at 80 g/ha (VIOTR [5]; Viola tricolor, 504 h, dosage 80 g/ha): 100%
pest or weed control at 80 g/ha (ABUTH [6]; Abutilon theophrasti, 504 h, 80 g/ha, scored visually after 3 weeks vs untreated controls (100% = plants have died, 0% = like control plants)): 90%
pest or weed control at 5 g/ha (ECHCG [7]; Echinochloa crus-galli, 504 h, dosage 5 g/ha): 80%
pest or weed control at 20 g/ha (ECHCG [7]; Echinochloa crus-galli, 504 h, dosage 20 g/ha): 90%
pest or weed control at 5 g/ha (ABUTH [8]; Abutilon theophrasti, 504 h, dosage 5 g/ha): 80%
pest or weed control at 20 g/ha (ABUTH [8]; Abutilon theophrasti, 504 h, dosage 20 g/ha): 100%
pest or weed control at 20 g/ha (SETVI [9]; [22]): 90%
pest or weed control at 80 g/ha (SETVI [9]; Setaria viridis, 504 h, dosage 80 g/ha): 100%
pest or weed control at 80 g/ha (ECHCG [10]; Echinochloa crus-galli, 504 h): 90%
pest or weed control at 5 g/ha (SETVI [11]; Setaria viridis, 504 h, dosage 5 g/ha): 100%
pest or weed control at 20 g/ha (SETVI [11]; [22]): 100%
pest or weed control at 20 g/ha (AMARE [12]; Amaranthus retroflexus, 504 h): 100%
pest or weed control at 20 g/ha (MATIN [13]; Tripleurospermum inodorum, 504 h): 90%
pest or weed control at 80 g/ha (POLCO; Fallopia convolvulus, 504 h, dosage 80 g/ha): 90%
pest or weed control at 20 g/ha (PHBPU [14]; Ipomoea purpurea, 504 h, dosage 20 g/ha): 80%
pest or weed control at 80 g/ha (PHBPU [14]; Ipomoea purpurea, 504 h, dosage 80 g/ha): 80%
pest or weed control at 80 g/ha (DIGSA [19]): 80%
pest or weed control at 20 g/ha (MATIN [15]; Tripleurospermum inodorum, 504 h, dosage 20 g/ha): 90%
pest or weed control at 80 g/ha (MATIN [15]; Tripleurospermum inodorum, 504 h, dosage 80 g/ha): 90%
pest or weed control at 5 g/ha (DIGSA [20]; 5 g/ha): 90%
pest or weed control at 20 g/ha (DIGSA [20]; 20 g/ha): 100%
pest or weed control at 20 g/ha (AMARE [16]; Amaranthus retroflexus, 504 h, 20 g/ha, scored visually after 3 weeks vs untreated controls, 100% = plants have died, 0% = like control plants): 100%
pest or weed control at 80 g/ha (AMARE [16]; Amaranthus retroflexus, 504 h, 80 g/ha, scored visually after 3 weeks vs untreated controls, 100% = plants have died, 0% = like control plants): 100%
pest or weed control at 20 g/ha (PHBPU [17]; Ipomoea purpurea, 504 h): 80%
pest or weed control at 80 g/ha (AVEFA; Avena fatua, 504 h): 80%
